US20080009478A1, “Benzazepine Derivatives and Methods of Prophylaxis or Treatment of 5Ht2c Receptor Associated Diseases” (Arena Pharmaceuticals, Inc., priority 2003, published 2008)
Where a name gives a salt, the structure may show the parent alone.

What was measured:
[1] = test system: amyloid precursor protein (APPs); settings: guinea pigs, in vivo, repeat administration; cited from earlier work
[2] = test system: serotonin 5HT2A receptors; settings: 3T3 fibroblasts expressing 5HT2A; cited from earlier work
human 5HT2C receptor = target: T1, human 5HT2C receptor (Homo sapiens, UniProt P28335); assay: Intracellular IP3 Accumulation Assay; format: cell-based; settings: HEK293 cells transfected with human 5HT2C receptor; averages of at least two trials; read-out: 5-HT2C (IC50) IP Accumulation Assay
T1 construct: expressed in transfected cells; host or cells: HEK293
T1 sequence (P28335 33-458): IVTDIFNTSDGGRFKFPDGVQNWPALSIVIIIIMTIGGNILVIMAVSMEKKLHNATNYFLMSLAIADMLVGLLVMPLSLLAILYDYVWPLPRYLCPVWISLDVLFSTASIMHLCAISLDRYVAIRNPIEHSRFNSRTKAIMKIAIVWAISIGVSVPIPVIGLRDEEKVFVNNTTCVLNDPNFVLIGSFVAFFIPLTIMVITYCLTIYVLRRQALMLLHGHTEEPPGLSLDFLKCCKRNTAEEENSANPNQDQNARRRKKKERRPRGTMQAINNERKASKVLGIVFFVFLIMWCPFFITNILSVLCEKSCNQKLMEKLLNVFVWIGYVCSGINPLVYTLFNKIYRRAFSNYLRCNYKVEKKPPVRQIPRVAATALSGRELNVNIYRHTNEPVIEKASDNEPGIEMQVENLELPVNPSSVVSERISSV
Protocol: Intracellular IP3 Accumulation Assay
HEK293 cells were transfected in 15 cm sterile dishes with or without (control) 16 ug of human 5HT2C receptor cDNA [Saltzman, A. G., et al. Biochem. Biophys. Res. Commun. 181, 1469-1478 (1991)] using 25 ul of lipofectamine. Cells were then incubated for 3-4 hours at 37° C./5% CO2 and then transfection media was removed and replaced with 100 μL of DMEM. Cells were then plated onto […] sterile dishes. The next day cells were plated into 96 well PDL microtiter plates at a density of 55K/0.2 ml. Six hours latter, media was exchanged with [^3H]inositol (0.25 μCi/well) in inositol free DMEM and plates were incubated at 37° C./5% CO2 overnight. The next day, wells were aspirated and 200 μl of DMEM containing test compound, 10 μM pargyline, and 10 mM LiCl was added to appropriate wells. Plates were then incubated at 37° C./5% CO2 for three hours followed aspiration and by addition of fresh ice cold stop solution (1M KOH, 19 mM Na-borate, 3.8 mM EDTA) to each well. Plates were kept on ice for 5-10 min and the wells were neutralized by addition of 200 μL of fresh ice cold neutralization solution (7.5% HCl). Plates were then frozen until further processing is desired. The lysate was then transferred into 1.5 mL Eppendorf tubes and 1 mL of chloroform/methanol (1:2) was added/tube. […]

C[C@H](N)Cc1cccc(C(F)(F)F)c1 [dexnorfenfluramine]
amyloid precursor protein (APPs) secretion [1]: stimulated | levels of Aβ production [1]: reducing

NCCc1c[nH]c2ccc(O)cc12 [Example 5-HT, 5-hydroxytryptamine]
Maximal stimulation of APPs secretion [2]: about 4 fold

C[C@@H]1CNCCc2cc(Cc3ccccc3)c(Cl)cc21 [Example 13, (S)-7-Benzyl-8-chloro-1-methyl-2,3,4,5-tetrahydro-1H-benzo[d]azepine hydrochloride]
IC50 (human 5HT2C receptor): 30 nM

COc1cc2c(cc1Cc1ccccc1)C(C)CNCC2 (racemic) [Example 14, (R,S)-8-Benzyl-7-methoxy-1-methyl-2,3,4,5-tetrahydro-1H-benzo[d]azepine hydrochloride]
IC50 (human 5HT2C receptor): 7 nM
